The record followed here is PubChem BioAssay AID1996.

Converted amounts (≈) assume the structure as drawn. Non-standard residues stand in square brackets, D forms with d. Residues, ends and D or L forms follow the SMILES beside them. ξ: configuration not given here. *: point of attachment. ξN = NC(=O)CC(N)C(=O)O; Boc = CC(C)(C)OC(=O)*

For this data set the following is noted: buffer; pH 7.4; 200.0 µM.
With `CCc1ccc(/C=C2\SC(N3CCOCC3)=NC2=O)cc1`, the kinetic solubility worked out at 24.9 µg/mL (≈ 82.3 µM). In the case of `O=C(O)c1ccc(NCc2cccs2)cc1` it was more than 35 µg/mL; in that of `CN(C)c1cccc(C(=O)NCCCn2ccc3ccccc32)c1`, 23 µg/mL (≈ 71.6 µM).

For `CC1CC(C)CN(C(=O)CSCC(=O)O)C1` (centres undefined), the solubility (kinetic) is more than 36.8 µg/mL.

Compound `Cl.FC(F)(F)c1cccc(C2NCc3ccccc3-n3cccc32)c1` (centres undefined) came in with a solubility (kinetic) of 3.9 µg/mL.

In the case of `O=C(O)/C=C/C(=O)NCCc1ccc(Cl)cc1`, the kinetic solubility was more than 38.1 µg/mL.

`O=C(Nc1ccnc(-c2ccncc2)n1)c1ccc(F)cc1` came in with a kinetic solubility of 0.4 µg/mL (≈ 1.36 µM).

`O=C(NC(=S)NCc1ccco1)c1ccccc1[N+](=O)[O-]`: the solubility (kinetic) is 8.7 µg/mL (≈ 28.5 µM).

In the case of `CN(C)c1ccc(NC(=O)C(=O)NCCOc2ccccc2)cc1`, the solubility (kinetic) turned out to be 0.7 µg/mL (≈ 2.14 µM).

In turn, `COc1ccccc1N(CC(=O)N1CCCC1)S(=O)(=O)c1cc([N+](=O)[O-])ccc1Cl` displayed a kinetic solubility of 6.8 µg/mL (≈ 15 µM). With `CC12CN3CC(C)(CN(C1)C3c1ccccc1F)C2` (centres undefined) the figure was 34.3 µg/mL (≈ 132 µM); with `CCOC(=O)c1csc(NC(=O)c2cc(=O)c3ccccc3o2)n1`, 11.5 µg/mL (≈ 33.4 µM); with `O=C(COc1ccc(Cl)cc1Br)Nc1ccncc1`, 5 µg/mL (≈ 14.6 µM).

The compound `CC(C)(C)c1ccc(C(=O)N2CCC(C(=O)NC3CC3)CC2)cc1` returned a kinetic solubility of 48 µg/mL (≈ 146 µM). Regarding `CCCCc1ccc(NC(=O)Nc2cccnc2)cc1`, the kinetic solubility was determined as 4 µg/mL (≈ 14.9 µM). Regarding `CCc1sc(C(=O)Nc2nccs2)cc1C`, the solubility (kinetic) was 3.6 µg/mL (≈ 14.3 µM).

Compound `CC1(CCc2ccccc2)NC(=O)N(CC(=O)O)C1=O` (centres undefined) showed a solubility (kinetic) of 16.6 µg/mL (≈ 60.1 µM).

In turn, `Cc1ccc(NC(=O)Nc2ccc3c(c2)CCC3)c(C)c1` gave a kinetic solubility of less than 0.3 µg/mL. With `Nc1ccc(S(=O)(=O)[O-])c[nH+]1` the figure was more than 26.1 µg/mL; with `COc1ccc(CC(=O)NCc2csc(-c3cccs3)n2)cc1OC`, 54.6 µg/mL (≈ 146 µM).

`O=C(COc1cc(F)ccc1[N+](=O)[O-])NCCN1C(=O)CSC1=O`: the solubility (kinetic) was more than 53.6 µg/mL. With `COC(=O)C1=C2SCC(=O)N2C(N)=C(C#N)C1` the figure was more than 37.7 µg/mL; with `COc1ccc(-n2c(C)cc3cc(OC(C)=O)ccc32)cc1`, 0.7 µg/mL (≈ 2.37 µM).

In turn, `COc1ccc(NS(=O)(=O)c2cn(C)nc2C)cc1` yielded a kinetic solubility of more than 42.2 µg/mL. For `CN(c1ccc(O)cc1)S(=O)(=O)c1ccc2ccccc2c1`, the kinetic solubility was more than 47 µg/mL. With `Cc1c(C(=O)O)[nH]c2c1C(=O)CC(c1ccc(C(C)(C)C)cc1)C2` (centres undefined), the kinetic solubility was more than 48.8 µg/mL.

Consider `Cc1cccc2c3c([nH]c12)C(=O)CC(C)(C)S3`, for which the kinetic solubility is less than 0.5 µg/mL. With `CC(=O)Nc1c(NC(C)(C)C)c2ccccc2oc1=O` the figure was more than 41.1 µg/mL; with `CNS(=O)(=O)c1cc2c3c(cccc3c1)C(=O)NC2=O`, 6.3 µg/mL (≈ 21.7 µM); with `O=C(COC(=O)c1ccc(Br)c(S(=O)(=O)N2CCOCC2)c1)NC1CC1`, more than 67.1 µg/mL. With `Cc1cccc(C)c1NC(=O)COC(=O)c1cc(S(=O)(=O)Nc2ccc(Cl)cc2)ccc1O` the figure was 11.5 µg/mL (≈ 23.5 µM). With `COc1cccc(NC(=O)Nc2ccc3c(c2)OCO3)c1` the figure was 3.7 µg/mL (≈ 12.9 µM). `CC1CCc2c(sc(/N=C/c3cccnc3)c2C(N)=O)C1` (centres undefined) showed a solubility (kinetic) of 26.8 µg/mL (≈ 89.5 µM). Consider `O=C(COC(=O)CCC(=O)c1cccs1)NCCc1ccccc1`, for which the solubility (kinetic) was more than 51.8 µg/mL. With `CCn1cc(CCCC(=O)NCc2ccccc2OC)c2ccccc21` the figure was 10.2 µg/mL (≈ 29.1 µM); with `COc1cccc(CNC(=O)C(Cc2ccccc2)n2cccc2)c1` (centres undefined), 29.7 µg/mL (≈ 88.8 µM); with `O=C(Nc1ccc(Nc2ccccc2)cc1)c1cccc(F)c1`, 0.8 µg/mL (≈ 2.61 µM). In the case of `CCOc1ccc(C(=O)NCc2ccco2)cc1OCC` it was 22.5 µg/mL (≈ 77.8 µM); in that of `O=C(NC1CCCCCCC1)c1ccc(Br)o1`, 37.2 µg/mL (≈ 124 µM); in that of `O=C(NCCOc1ccc(Cl)cc1)c1ccco1`, 25.9 µg/mL (≈ 97.5 µM). With `O=C(COC(=O)c1ccc(Cl)nc1)NCc1cccs1` the figure was 25.2 µg/mL (≈ 81.1 µM). Compound `CCCc1cc(C(=O)Nc2cc(C)ccc2O)no1` registered a solubility (kinetic) of 1.2 µg/mL (≈ 4.61 µM). In the case of `Cc1ccccc1NC(=O)C1CC(=O)OC12CCOC(C)(C)C2` (centres undefined) it was more than 47.6 µg/mL. With `CCOC(=O)c1c(C)[nH]c(C(=O)COC(=O)c2cccnc2Cl)c1C` the figure was 4.7 µg/mL (≈ 12.9 µM); with `COc1cc(OC)cc(C(=O)NCCc2ccc(OC)c(OC)c2)c1`, 45.5 µg/mL (≈ 132 µM); with `CC1(C)Cc2nc3sc4c(NCCO)ncnc4c3cc2CS1`, more than 52 µg/mL. With `Cc1ccc(C)c(Nc2cc(C)nc3ccccc23)c1` the figure was more than 39.4 µg/mL; with `S=C(NCCc1cccc(Cl)c1)NC1CCCCC1`, 10.5 µg/mL (≈ 35.4 µM). `COc1cc(/C=C2\SC(N)=NC2=O)cc(Cl)c1O` gave a kinetic solubility of 9.6 µg/mL (≈ 33.7 µM). With `O=C(C[n+]1ccccc1)Nc1ccccc1` the figure was 26.3 µg/mL; with `CCOC(=O)C1CCN(C(=O)CC2(CC(=O)O)CCCC2)CC1`, 45.5 µg/mL (≈ 140 µM).

Compound `CCOC(=O)c1c(-c2ccc(F)cc2)csc1/N=C/N(C)C` registered a kinetic solubility of more than 48.1 µg/mL. Turning to `O=C1CC(C(=O)NC2CCCCC2)C2(CCCCC2)O1` (centres undefined), the solubility (kinetic) is more than 41.9 µg/mL. In the case of `COc1ccc(C(=O)c2cnc[nH]2)cc1` it was more than 30.3 µg/mL; in that of `Cc1cccc(-n2c(O)c(C=Nc3cccc(O)c3)c3ccccc3c2=O)n1`, 0.8 µg/mL (≈ 2.15 µM); in that of `CC(C)(C)NC(=O)CSc1nc2ccccc2c(=O)[nH]1`, 30.9 µg/mL (≈ 106 µM).

`CC(O)c1cccc(NC(=O)C2CCCCC2)c1` (centres undefined): the solubility (kinetic) amounted to 25.6 µg/mL (≈ 104 µM). In the case of `CC1CCN(C(=O)c2ccc(N3C(=O)C4CCC(C)CC4C3=O)cc2)CC1` (centres undefined) it was 48.4 µg/mL (≈ 131 µM). With `COc1cc(OC)cc(C(=O)NCC(=O)OC(C)C(=O)NC(C)C2CC3CCC2C3)c1` (centres undefined) the figure was more than 64.9 µg/mL; with `COc1ccc(N2CCN(CCc3ccncc3)CC2)cc1`, more than 44.6 µg/mL; with `Cc1cc(C)c(S(=O)(=O)c2cc(F)ccc2C)c(Cl)n1`, 44.6 µg/mL (≈ 142 µM). With `CCOc1ccc2nc(NC(=O)CN3CCN(CC)CC3)sc2c1` the figure was 47.6 µg/mL (≈ 137 µM). `COc1ccccc1NC(=O)c1ccc2c(c1)OCO2` registered a kinetic solubility of 39.7 µg/mL (≈ 146 µM).

The compound `CCN(C(=O)c1ccc2c(c1)OCO2)C12CC3CC(CC(C3)C1)C2` gave a kinetic solubility of 4 µg/mL (≈ 12.2 µM). In the case of `Fc1ccccc1CNc1nc(-c2cccnc2)nc2ccccc12` it was 9 µg/mL (≈ 27.2 µM); in that of `CC(C)CCN(C(=S)Nc1cccc(F)c1)C1CCN(C(C)C)CC1`, 48.2 µg/mL (≈ 132 µM); in that of `O=C(COC(=O)C1(c2ccccc2)CCCC1)N1CCNC1=O`, more than 47.5 µg/mL. `NC(=O)NC(=O)COC(=O)/C=C/c1cccc(Br)c1`: the solubility (kinetic) is 0.4 µg/mL (≈ 1.22 µM). `COc1ccccc1Nc1ncnc2sccc12` had a solubility (kinetic) of 30.1 µg/mL (≈ 117 µM). `COc1ccc2nc(C)c3c(c2c1)OC(C(C)(Cl)Br)C3` (centres undefined) yielded a solubility (kinetic) of 4 µg/mL (≈ 11.2 µM). In the case of `CCOC(=O)CNC(=O)C(CC(N)=O)NC(=O)OC(C)(C)C` (centres undefined) (Boc-[ξN]-Gly-OEt) it was more than 47.6 µg/mL; in that of `COc1ccc(-c2c(C#N)c(N)nc(Sc3ccc(Cl)cc3)c2C#N)cc1`, less than 0.2 µg/mL. With `COCCCNC1CS(=O)(=O)CC1O.Cl` (centres undefined) the figure was more than 39 µg/mL; with `Nc1ccc2c(c1)C(=O)c1ccccc1-2`, 27.9 µg/mL (≈ 143 µM); with `Cc1ccc(C(C)NC(=S)NC2CCCCC2)c(C)c1` (centres undefined), 9.1 µg/mL (≈ 31.3 µM). `Cc1ccc(NS(=O)(=O)c2c(C)[nH]c(=O)[nH]c2=O)c(C)c1` returned a solubility (kinetic) of more than 46.4 µg/mL.

On to `O=C(NC1=NCCS1)C1CCCCC1`, for which the solubility (kinetic) was more than 31.8 µg/mL. With `CC(C)(C)N(Cc1ccccc1)C(=O)COC(=O)c1ccc(S(=O)(=O)N2CCOCC2)cc1` the figure was 18.4 µg/mL (≈ 38.8 µM); with `CC(Oc1ccc(Br)cc1Br)C(=O)Nc1cccnc1` (centres undefined), 7.2 µg/mL (≈ 18 µM); with `Cc1ccc(CNC(=O)C2CC(=O)N(C3CCCC3)C2)cc1` (centres undefined), 41.2 µg/mL (≈ 137 µM). With `CNc1ccccc1NC(=O)CCn1c(=S)oc2ccccc21` the figure was 5.6 µg/mL (≈ 17.1 µM); with `CCOC(=O)c1c(N)sc(N)c1C(=O)OCC`, 29.9 µg/mL (≈ 116 µM); with `CCCOc1ccccc1/C=C1/C(=O)ON=C1C`, 23.3 µg/mL (≈ 95 µM).

`c1ccc(P(c2ccccc2)c2ccccn2)cc1` gave a solubility (kinetic) of 10 µg/mL (≈ 38 µM).

For `CC1(C)CC2=C(CO1)C(=S)NC(c1ccccc1)N2CC1CCCO1` (centres undefined), the solubility (kinetic) was 45.3 µg/mL (≈ 126 µM). In the case of `Cc1ccc(S(=O)(=O)CC(=O)Nc2cccc(C)n2)cc1` it was 11.5 µg/mL (≈ 37.8 µM); in that of `O=C(COC(=O)c1ccc(O)cc1)Nc1nccs1`, more than 41.7 µg/mL; in that of `CCCN1CCc2c(sc3nc(SC)n(-c4ccccc4)c(=O)c23)C1`, 33.9 µg/mL (≈ 91.2 µM).

Regarding `O=[N+]([O-])c1ccccc1/C=C/CN1CCC(O)CC1`, the kinetic solubility was determined as 29.2 µg/mL (≈ 111 µM). With `Cc1ccc(N2CC(C(=O)NC3CC3)CC2=O)cc1` (centres undefined) the figure was more than 38.7 µg/mL; with `Cl.Nc1nc2nc[nH]c2c(=O)[nH]1`, 21.5 µg/mL. With `COC(=O)c1ccc(NS(=O)(=O)c2ccc(S(=O)(=O)N3CCOCC3)cc2)cc1` the figure was more than 66.1 µg/mL. In the case of `COc1ccc(-c2nc(N)ncc2-c2ccc(OC)c(OC)c2)c(O)c1` it was 1 µg/mL (≈ 2.83 µM); in that of `Cc1nc2ccc([N+](=O)[O-])cc2s1`, 19.4 µg/mL (≈ 99.9 µM); in that of `CCCCC(=O)Nc1ccc(NC(=O)c2ccco2)cn1`, 36.9 µg/mL (≈ 128 µM). The compound `Cc1cc(C)cc(NC(=S)N2CCC(NC(=O)C3CC3)CC2)c1` registered a solubility (kinetic) of more than 49.7 µg/mL. With `N#Cc1c(F)cccc1NCc1cccnc1` the figure was 33.2 µg/mL (≈ 146 µM); with `Cc1c(O)nc2sc3ccccc3n2c1=O`, 31.3 µg/mL (≈ 135 µM).

`Cn1c2c(c(=O)n(C)c1=O)C(CC(=O)Nc1ccccc1F)C(=O)N2` (centres undefined): the kinetic solubility was more than 51.9 µg/mL.

In turn, `CC(C)[C@H](NC(=O)c1ccccc1F)C(=O)OCCN1C(=O)c2ccccc2C1=O` returned a kinetic solubility of more than 61.9 µg/mL. With `Cc1cccc(NC(=O)NNC(=O)c2ccccn2)c1` the figure was more than 40.5 µg/mL; with `Cc1ccc(NC(=O)COC(=O)c2ccc3c(c2)OCO3)c(C)c1`, less than 0.7 µg/mL. Consider `O=C(OC(C(=O)NC1CCCCC1)c1ccccc1F)c1ccco1` (centres undefined), for which the kinetic solubility was 41.6 µg/mL (≈ 120 µM). In the case of `CC(=O)N(C)c1ccc(NC(=O)C(c2ccccc2)c2ccccc2)cc1` it was 40.2 µg/mL (≈ 112 µM).

Usually solubility (kinetic) stands for solubility judged after dilution from a stock solution rather than from solid.
